pIC50: −log10 of the molar value. Starred links: 1 amine or outer side, 2 acyl side, 3 side chain; linkers in the order of their positions; H or OH if unused. Positions of bridges follow the written chain, without caps; N, C: chain ends. Non-standard residues stand in square brackets, D forms with d. Residues, ends and D or L forms follow the SMILES beside them. Groups on a side chain read outwards from the residue. *: point of attachment. X46 = CCCCCCCCCCCC(=O)N[C@@H](CCC(=O)NCCOCCOCC(=O)NCCOCCOCC(=O)NCCCC[C@H](NC(=O)COCCOCCNC(=O)COCCOCCNC(=O)CC[C@H](NC(=O)CCCCCCCCCCC)C(=O)O)C(=O)*)C(=O)O; Me3N+(CH2)2O(CH2)2O(CH2)2CO = C[N+](C)(C)CCOCCOCCC(=O)*; Trp(7-Me) = Cc1cccc2c(C[C@H](N)C(=O)O)c[nH]c12; γGlu = O=C(O)[C@H](CCC(=O)[*:2])N[*:1]; 2Nal = N[C@@H](Cc1ccc2ccccc2c1)C(=O)O; 3Pal = N[C@@H](Cc1cccnc1)C(=O)O; Lys(Me) = CNCCCC[C@H](N)C(=O)O; NMeK = CN[C@@H](CCCCN)C(=O)O; Pen = CC(C)(S)[C@H](N)C(=O)O; Lauroyl = CCCCCCCCCCCC(=O)*; X11 = N=C(N)NCCOCCOCCC(=O)*; X31 = N=C(N)NCCOCCC(=O)*; Thp = NC1(C(=O)O)CCOCC1; X3 = C[N+](C)(C)CCCCC*; AEEA = NCCOCCOCC(=O)O; Sar = CNCC(=O)O
Tests used:
[1] = target: T1, IL-23R (Homo sapiens, UniProt Q5VWK5); experiment: IL23R Reporter Assay; type: cell-based; settings: HEK293 cells containing IL-23R, IL-12RP1 and STAT-inducible firefly luciferase reporter; 10 ng/mL IL-23 (EC90); 5 h at 37° C.; read-out: IL23R Reporter Assay
T1 construct: host or cells: HEK293
T1 sequence (Q5VWK5 24-629): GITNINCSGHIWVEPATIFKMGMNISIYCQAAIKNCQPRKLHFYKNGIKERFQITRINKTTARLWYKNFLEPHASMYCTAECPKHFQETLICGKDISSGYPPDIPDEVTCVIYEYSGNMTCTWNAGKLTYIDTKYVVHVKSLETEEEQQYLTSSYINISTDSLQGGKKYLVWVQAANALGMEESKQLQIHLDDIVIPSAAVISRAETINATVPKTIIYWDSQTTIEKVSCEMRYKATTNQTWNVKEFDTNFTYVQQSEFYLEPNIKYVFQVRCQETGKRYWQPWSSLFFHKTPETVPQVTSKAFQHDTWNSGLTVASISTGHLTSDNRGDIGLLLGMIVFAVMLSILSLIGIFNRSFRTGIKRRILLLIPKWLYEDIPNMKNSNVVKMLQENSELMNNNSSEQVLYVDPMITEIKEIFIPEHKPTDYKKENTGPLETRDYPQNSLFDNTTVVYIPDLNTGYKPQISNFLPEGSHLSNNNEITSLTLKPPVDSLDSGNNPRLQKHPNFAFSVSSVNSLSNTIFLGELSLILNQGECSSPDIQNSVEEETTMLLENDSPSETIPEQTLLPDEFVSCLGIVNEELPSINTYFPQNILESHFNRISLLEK

[2] = Exposed Polar Surface Area (EPSA); type: physicochemical; settings: SFC on Chirex 3014 column; sample 1 mM DMSO stock; read-out: EPSA
How it was run: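 SFC retention on a Chirex 3014 (S)-valine/(R)-1-(α-naphthyl)ethylamine column, 35 °C, CO2 with MeOH (20 mM ammonium formate) gradient 5–60% at 20%/min, 14 MPa outlet. Retention times converted to EPSA (Å^2) via linear calibration with 8 standards; samples from 1 mM DMSO stock, run in duplicate.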

Row | SMILES | pIC50 [1] | EPSA [2] [A^2]
1 | CCCCCCCCCCCC(=O)N[C@@H](CCC(=O)NCCOCCOCC(=O)NCCOCCOCC(=O)NCCCC[C@H](NC(=O)COCCOCCNC(=O)COCCOCCNC(=O)CC[C@H](NC(=O)CCCCCCCCCCC)C(=O)O)C(=O)NCCOCCOCC(=O)NCCOCCOCC(=O)NCCCC[C@@H](C(N)=O)N(C)C(=O)[C@H](Cc1cccnc1)NC(=O)[C@H](CC(N)=O)NC(=O)[C@H](CCCCN(C)C(C)=O)NC(=O)C1(NC(=O)[C@H](Cc2ccc3ccccc3c2)NC(=O)[C@H](Cc2ccc(OCCCCC[N+](C)(C)C)cc2)NC(=O)[C@H]2NC(=O)[C@H](CCCCNC(C)=O)NC(=O)[C@H](Cc3c[nH]c4c(C)cccc34)NC(=O)[C@H]([C@@H](C)O)NC(=O)[C@H](CC(=O)N(C)C)NC(=O)[C@@H](NC(=O)CCOCCOCC[N+](C)(C)C)C(C)(C)SSC2(C)C)CCOCC1)C(=O)O [compound 372, cPEG3aCO-Pen(3)-N(N(Me)2)-T-7MeW-K(Ac)-Pen(3)-TMAPF-2Nal-THP-K(NMeac)-N-3Pya-NMeK(PEG2PEG2K(PEG2PEG2gEC12)2)-CONH2] ({Me3N+(CH2)2O(CH2)2O(CH2)2CO}-[Pen]D(NMe2)T[Trp(7-Me)]K(Ac)[Pen]Y(X3)[2Nal][Thp][Lys(Me)](Ac)N[3Pal][NMeK]([AEEA-AEEA-X46])-NH2; disulfide 1-6) | 7.70 | 203
2 | CCCCCCCCCCCC(=O)N[C@@H](CCC(=O)NCCOCCOCC(=O)NCCOCCOCC(=O)NCCCC[C@@H]1NC(=O)[C@H](Cc2c[nH]c3c(C)cccc23)NC(=O)[C@H]([C@@H](C)O)NC(=O)[C@H](CCCCNC(=O)COCCOCCNC(=O)COCCOCCNC(=O)CC[C@H](NC(=O)CCCCCCCCCCC)C(=O)O)NC(=O)[C@@H](NC(=O)CCOCCOCC[N+](C)(C)C)C(C)(C)SSC(C)(C)[C@@H](C(=O)N[C@@H](Cc2ccc(OCCCCC[N+](C)(C)C)cc2)C(=O)N[C@@H](Cc2ccc3ccccc3c2)C(=O)NC2(C(=O)N[C@@H](CCCCN(C)C(C)=O)C(=O)N[C@@H](CC(N)=O)C(=O)N[C@@H](Cc3cccnc3)C(=O)N(C)CC(=O)N(C)C)CCOCC2)NC1=O)C(=O)O [compound 389, cPEG3aCO-Pen(3)-K(PEG2PEG2gEC12)-T-7MeW-K(PEG2PEG2gEC12)-Pen(3)-TMAPF-2Nal-THP-K(NMeAc)-N-3Pya-Sar-CON(Me)2] ({Me3N+(CH2)2O(CH2)2O(CH2)2CO}-[Pen]K([AEEA-AEEA-γGlu-Lauroyl])T[Trp(7-Me)]K([AEEA-AEEA-γGlu-Lauroyl])[Pen]Y(X3)[2Nal][Thp][Lys(Me)](Ac)N[3Pal][Sar]-NMe2; disulfide 1-6) | 6.41 | 185
3 | CCCCCCCCCCCC(=O)N[C@@H](CCC(=O)NCCOCCOCC(=O)NCCOCCOCC(=O)NCCCC[C@@H]1NC(=O)[C@H](Cc2c[nH]c3c(C)cccc23)NC(=O)[C@H]([C@@H](C)O)NC(=O)[C@H](CC(=O)N(C)C)NC(=O)[C@@H](NC(=O)CCOCCOCC[N+](C)(C)C)C(C)(C)SSC(C)(C)[C@@H](C(=O)N[C@@H](Cc2ccc(OCCCCC[N+](C)(C)C)cc2)C(=O)N[C@@H](Cc2ccc3ccccc3c2)C(=O)NC2(C(=O)N[C@@H](CCCCNC(=O)COCCOCCNC(=O)COCCOCCNC(=O)CC[C@H](NC(=O)CCCCCCCCCCC)C(=O)O)C(=O)N[C@@H](CC(N)=O)C(=O)N[C@@H](Cc3cccnc3)C(=O)N(C)CC(=O)N(C)C)CCOCC2)NC1=O)C(=O)O [compound 400, cPEG3aCO-Pen(3)-N(N(Me)2)-T-7MeW-K(PEG2PEG2gEC12)-Pen(3)-TMAPF-2Nal-THP-K(PEG2PEG2gEC12)-N-3Pya-Sar-CON(Me)2] ({Me3N+(CH2)2O(CH2)2O(CH2)2CO}-[Pen]D(NMe2)T[Trp(7-Me)]K([AEEA-AEEA-γGlu-Lauroyl])[Pen]Y(X3)[2Nal][Thp]K([AEEA-AEEA-γGlu-Lauroyl])N[3Pal][Sar]-NMe2; disulfide 1-6) | 6.54 | 173
4 | CCCCCCCCCCCC(=O)N[C@@H](CCC(=O)NCCOCCOCC(=O)NCCOCCOCC(=O)NCCCC[C@H](NC(=O)C1(NC(=O)[C@H](Cc2ccc3ccccc3c2)NC(=O)[C@H](Cc2ccc(OCCCCC[N+](C)(C)C)cc2)NC(=O)[C@H]2NC(=O)[C@H](CCCCN(C)C(C)=O)NC(=O)[C@H](Cc3c[nH]c4c(C)cccc34)NC(=O)[C@H]([C@@H](C)O)NC(=O)[C@H](CC(=O)N(C)C)NC(=O)[C@@H](NC(=O)CCOCCOCC[N+](C)(C)C)C(C)(C)SSC2(C)C)CCOCC1)C(=O)N[C@@H](CC(N)=O)C(=O)N[C@@H](Cc1cccnc1)C(=O)N(C)CC(=O)N(C)C)C(=O)O [compound 401, cPEG3aCO-Pen(3)-N(N(Me)2)-T-7MeW-K(NMeAc)-Pen(3)-TMAPF-2Nal-THP-K(PEG2PEG2gEC12)-N-3Pya-Sar-CON(Me)2] ({Me3N+(CH2)2O(CH2)2O(CH2)2CO}-[Pen]D(NMe2)T[Trp(7-Me)][Lys(Me)](Ac)[Pen]Y(X3)[2Nal][Thp]K([AEEA-AEEA-γGlu-Lauroyl])N[3Pal][Sar]-NMe2; disulfide 1-6) | 8.23 | 155

Now those with a higher pIC50 [1], led by results:

Row | pIC50 [1] | EPSA [2] [A^2] | SMILES
5 | 8.85 | 157 | CC(=O)N(C)CCCC[C@H](NC(=O)C1(NC(=O)[C@H](Cc2ccc3ccccc3c2)NC(=O)[C@H](Cc2ccc(OCCCCC[N+](C)(C)C)cc2)NC(=O)[C@H]2NC(=O)[C@H](CCCCNC(=O)CCOCCOCC[N+](C)(C)C)NC(=O)[C@H](Cc3c[nH]c4c(C)cccc34)NC(=O)[C@H]([C@@H](C)O)NC(=O)[C@H](CC(=O)N(C)C)NC(=O)[C@@H](NC(=O)CCOCCOCC[N+](C)(C)C)C(C)(C)SSC2(C)C)CCOCC1)C(=O)N[C@@H](CC(N)=O)C(=O)N[C@@H](Cc1cccnc1)C(=O)N(C)CC(=O)N(C)C [compound 384, cPEG3aCO-Pen(3)-N(N(Me)2)-T-7MeW-K(cPEG3a)-Pen(3)-TMAPF-2Nal-THP-K(NMeAc)-N-3Pya-Sar-CON(Me)2] ({Me3N+(CH2)2O(CH2)2O(CH2)2CO}-[Pen]D(NMe2)T[Trp(7-Me)]K(Me3N+(CH2)2O(CH2)2O(CH2)2CO)[Pen]Y(X3)[2Nal][Thp][Lys(Me)](Ac)N[3Pal][Sar]-NMe2; disulfide 1-6)
6 | 8.92 | 148 | CC(=O)N(C)CCCC[C@@H]1NC(=O)[C@H](Cc2c[nH]c3c(C)cccc23)NC(=O)[C@H]([C@@H](C)O)NC(=O)[C@H](CC(=O)N(C)C)NC(=O)[C@@H](NC(=O)CCOCCNC(=N)N)C(C)(C)SSC(C)(C)[C@@H](C(=O)N[C@@H](Cc2ccc(OCCCCC[N+](C)(C)C)cc2)C(=O)N[C@@H](Cc2ccc3ccccc3c2)C(=O)NC2(C(=O)N[C@@H](CCCCN(C)C(C)=O)C(=O)N[C@@H](CC(N)=O)C(=O)N[C@@H](Cc3cccnc3)C(=O)N(C)CC(=O)N(C)C)CCOCC2)NC1=O [compound 390, cPEG2gCO-Pen(3)-N(N(Me)2)-T-7MeW-K(NMeAc)-Pen(3)-TMAPF-2Nal-THP-K(NMeAc)-N-3Pya-Sar-CON(Me)2] (X31-[Pen]D(NMe2)T[Trp(7-Me)][Lys(Me)](Ac)[Pen]Y(X3)[2Nal][Thp][Lys(Me)](Ac)N[3Pal][Sar]-NMe2; disulfide 1-6)
7 | 8.82 | 158 | CC(=O)N(C)CCCC[C@@H]1NC(=O)[C@H](Cc2c[nH]c3c(C)cccc23)NC(=O)[C@H]([C@@H](C)O)NC(=O)[C@H](CC(=O)N(C)C)NC(=O)[C@@H](NC(=O)CCOCCOCCNC(=N)N)C(C)(C)SSC(C)(C)[C@@H](C(=O)N[C@@H](Cc2ccc(OCCCCC[N+](C)(C)C)cc2)C(=O)N[C@@H](Cc2ccc3ccccc3c2)C(=O)NC2(C(=O)N[C@@H](CCCCN(C)C(C)=O)C(=O)N[C@@H](CC(N)=O)C(=O)N[C@@H](Cc3cccnc3)C(=O)N(C)CC(=O)N(C)C)CCOCC2)NC1=O [compound 391, cPEG3gCO-Pen(3)-N(N(Me)2)-T-7MeW-K(NMeAc)-Pen(3)-TMAPF-2Nal-THP-K(NMeAc)-N-3Pya-Sar-CON(Me)2] (X11-[Pen]D(NMe2)T[Trp(7-Me)][Lys(Me)](Ac)[Pen]Y(X3)[2Nal][Thp][Lys(Me)](Ac)N[3Pal][Sar]-NMe2; disulfide 1-6)

Reference: US20260022143A1, “Cyclic Peptide Inhibitors of IL-23” (JANSSEN PHARMACEUTICA NV, priority 2022, published 2026)
